Experiments:
SSTR3 [1] = target: T1, SSTR3 (Homo sapiens, UniProt P32745); assay: SSTR binding affinity (Table 1)
Text: (§1) IC50 values are from one representative experiment. Confidence interval from 3 independent experiments (Table 1).

SSTR1 = SSTR1 (Homo sapiens, UniProt P30872); assay: SSTR binding affinity (Table 1)
Text: as §1

SSTR5 [2] = target: T2, SSTR5 (Homo sapiens, UniProt P35346); assay: SSTR binding affinity (Table 1)
Text: as §1

SSTR2 [3] = target: T3, SSTR2 (Homo sapiens, UniProt P30874); assay: SSTR2 phosphorylation in HEK293 transfected cells (phosphosite-specific antibodies); type: cell-based; set-up: expressed in transfected cells; conditions: 10 or 1 μM, 10 min at 37° C.
T3 sequence (P30874 whole entry): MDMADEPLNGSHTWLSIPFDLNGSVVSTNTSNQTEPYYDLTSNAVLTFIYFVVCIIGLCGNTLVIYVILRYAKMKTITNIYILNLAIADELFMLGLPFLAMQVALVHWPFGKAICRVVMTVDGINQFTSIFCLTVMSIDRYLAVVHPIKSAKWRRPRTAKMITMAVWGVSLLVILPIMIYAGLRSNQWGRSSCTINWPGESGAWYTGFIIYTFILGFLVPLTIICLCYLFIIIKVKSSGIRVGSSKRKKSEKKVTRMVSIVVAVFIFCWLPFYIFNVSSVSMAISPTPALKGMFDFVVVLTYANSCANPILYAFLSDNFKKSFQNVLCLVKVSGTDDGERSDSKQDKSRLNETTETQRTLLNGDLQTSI
Experimental: (A) Schematic representation of the human SSTR2 receptor indicating all potential phosphate acceptor sites within the carboxyl-terminal tail. Epitopes of the phosphosite-specific antibodies are marked (-P). […] The levels of phosphorylated SSTR2 receptor were then determined using the phosphosite-specific anti-pS341/pS343, pT353/T354, pT356/T359 antibodies. […] Blots shown are representative of three independent experiments. The positions of molecular mass markers are indicated on the left (in kDa).

SSTR3-tGFP = SSTR3-tGFP (Homo sapiens, UniProt P32745); assay: Internalization of SSTR3 in U2OS transfected cells; type: cell-based; set-up: expressed in transfected cells; host or cells: U2OS
SSTR3-tGFP, sequence (P32745 whole entry): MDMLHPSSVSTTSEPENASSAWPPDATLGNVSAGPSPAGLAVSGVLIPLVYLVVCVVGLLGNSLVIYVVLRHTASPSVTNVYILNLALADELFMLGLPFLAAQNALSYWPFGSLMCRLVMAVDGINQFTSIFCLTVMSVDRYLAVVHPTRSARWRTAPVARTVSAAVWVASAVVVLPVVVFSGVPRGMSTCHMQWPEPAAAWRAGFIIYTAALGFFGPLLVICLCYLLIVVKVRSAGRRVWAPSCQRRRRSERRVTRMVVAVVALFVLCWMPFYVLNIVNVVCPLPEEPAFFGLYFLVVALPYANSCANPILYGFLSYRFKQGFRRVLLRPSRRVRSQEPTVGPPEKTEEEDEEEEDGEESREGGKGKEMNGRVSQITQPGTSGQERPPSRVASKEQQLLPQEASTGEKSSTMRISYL
Text: (§2) HEK293 cells transfected with human SSTRs, and U20S cells transfected with human GFP-tagged receptors (SSTR2-tGFP, SSTR3-tGFP, SSTR5-tGFP).

SSTR2 [4] = target: T3, SSTR2; assay: cell-based; set-up: expressed in transfected cells; host or cells: HEK293 co-expressing GIRK2-GFP
Text: (§4) Therefore, G protein-signaling mediated by SSTR agonists was studied using a GIRK-based fluorescence membrane potential assay both in HEK293 cells transfected with hSSTR3, and in AtT20 wild-type as well as hSSTR3-transfected cells.

[5] = test system: NFPAs in MENX (homozygous mutant) rats; assay: Efficacy against endogenous NFPAs in MENX rat model; type: in vivo; conditions: for number of Ki67-positive cells per 100.000 μm^2: end of treatment
Experimental: MRI was performed every 14 days and the tumor volume was normalized against the volume at day 0. Male and female rat tumors are shown separately. Data presented are the mean±SEM. #, not significant; *, p-value <0.05; **, p-value <0.001.
(A, B) Number of Ki67-positive cells per 100.000 μm2 in tumors of rats belonging to the 2 groups (ITF2984-treated and control) and both sexes. Shown is the mean±SEM. *, p-value <0.05; **, p-value <0.001. […]
At the end of the treatment, pituitary tissues were collected for ex vivo analyses. […] The difference in the number of Ki67-positive cells between placebo-and ITF2984-treated female rats is significant (p=0.031). […]

IGF1 levels = IGF1 levels in rats; type: in vivo, rat
SSTR2 [6] = target: T3, SSTR2; assay: SSTR binding affinity (Table 1); set-up: expressed in transfected cells; host or cells: HEK293 co-expressing GIRK2-GFP
Text: as §1

opioid receptors = assay: single dose binding assays on opioid receptors; conditions: single dose 10^−5 M
SSTR5 [7] = target: T2, SSTR5; assay: SSTR5 internalization in transfected HEK293 cells; type: cell-based; set-up: expressed in transfected cells; host or cells: HEK293 co-expressing GIRK2-GFP
Text: (§3) HEK293 cells transfected with human SSTRs, and U20S cells transfected with human GFP-tagged receptors (SSTR2-tGFP, SSTR3-tGFP, SSTR5-tGFP). SST14 and SST28 were included as reference compounds in the first and second experiments, respectively.

SSTR5 [8] = target: T2, SSTR5; assay: SSTR5 phosphorylation in HEK293 transfected cells (anti-pT333); type: cell-based; set-up: expressed in transfected cells; conditions: 10 min at 37° C.
Text: FIG. 9—Agonist-selective SSTR5 phosphorylation in HEK293 transfected cells. (A) Schematic representation of the human SSTR5 receptor indicating all potential phosphate acceptor site within the carboxyl-terminal tail. Epitope of the phosphosite-specific antibodies are marked (-P) . . . […] (C) Blots were subsequently stripped and reprobed with anti-HA antibody to confirm equal loading of the gels. Blots shown are representative of three independent experiments. The positions of molecular mass markers are indicated on the left (in kDa).
Finally, the SSTR5 pT333 phosphosite was only partially affected by all tested compounds, with Pasireotide showing the most pronounced effect (FIG. 9B, C).

SSTR2-tGFP = SSTR2-tGFP (Homo sapiens, UniProt P30874); assay: Internalization of SSTR2 in U2OS transfected cells; type: cell-based; set-up: expressed in transfected cells; host or cells: U2OS
SSTR2-tGFP, sequence (P30874 whole entry): as the sequence (P30874 whole entry) above
Text: as §2

SSTR5-tGFP = SSTR5-tGFP (Homo sapiens, UniProt P35346); assay: Internalization of SSTR5 in U2OS transfected cells; type: cell-based; set-up: expressed in transfected cells; host or cells: U2OS
SSTR5-tGFP, sequence (P35346 whole entry): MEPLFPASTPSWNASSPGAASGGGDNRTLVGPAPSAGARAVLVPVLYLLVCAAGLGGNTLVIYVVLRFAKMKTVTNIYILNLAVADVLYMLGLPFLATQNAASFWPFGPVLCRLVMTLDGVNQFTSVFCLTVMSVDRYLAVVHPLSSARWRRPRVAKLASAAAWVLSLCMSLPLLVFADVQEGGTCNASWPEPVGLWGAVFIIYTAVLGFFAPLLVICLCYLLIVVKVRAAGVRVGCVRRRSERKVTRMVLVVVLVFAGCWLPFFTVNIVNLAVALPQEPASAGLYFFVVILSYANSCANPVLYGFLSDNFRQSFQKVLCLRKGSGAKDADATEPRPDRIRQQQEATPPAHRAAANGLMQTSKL
Text: as §2

[9] = test system: pentobarbital-induced GH release; assay: pentobarbital-induced GH release in rats; type: in vivo, rat
SSTR5 [10] = target: T2, SSTR5
Text: as §4

SSTR3 [11] = target: T1, SSTR3; assay: SSTR3 internalization in transfected HEK293 cells (confocal microscopy); type: cell-based; set-up: expressed in transfected cells; conditions: HEK293, 1 μM or 10 μM, 30 min
Text: Cells were then fixed, stained with the anti-HA antibody and examined by confocal microscopy. Shown are representative images from one of at least three independent experiments performed in duplicate.
as §3

T2 sequence (P35346 whole entry): as above
T1 sequence (P32745 whole entry): as the sequence (P32745 whole entry) above
SSTR1, sequence (P30872 whole entry): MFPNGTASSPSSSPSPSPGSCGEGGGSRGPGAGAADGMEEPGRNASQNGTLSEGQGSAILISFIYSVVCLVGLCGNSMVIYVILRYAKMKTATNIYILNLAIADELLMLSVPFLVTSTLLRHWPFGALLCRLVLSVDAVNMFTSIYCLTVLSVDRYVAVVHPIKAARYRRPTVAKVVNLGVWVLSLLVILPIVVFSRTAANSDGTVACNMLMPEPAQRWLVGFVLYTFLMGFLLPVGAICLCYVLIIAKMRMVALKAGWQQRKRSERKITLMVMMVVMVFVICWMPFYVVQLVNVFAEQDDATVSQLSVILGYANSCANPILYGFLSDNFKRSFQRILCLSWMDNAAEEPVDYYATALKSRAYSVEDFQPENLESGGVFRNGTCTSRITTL

COc1cc2cccc(OC)c2cc1C[C@H]1NC(=O)[C@H](Cc2ccc(O)cc2)NC(=O)[C@@H]2C[C@@H](OC(=O)NCCN)CN2C(=O)[C@H](Cc2ccccc2)NC(=O)[C@H](Cc2ccc(OCc3ccccc3)cc2)NC(=O)[C@H](CCCCN)NC1=O [ITF2984, (3S,6R,9S,12S,15S,19R,20aS)-9-(4-aminobutyl)-15-benzyl-12-(4-(benzyloxy)benzyl)-6-((3,8-dimethoxynaphthalen-2-yl)methyl)-3-(4-hydroxybenzyl)-1,4,7,10,13,16-hexaoxoicosahydropyrrolo[1,2-a][1,4,7,10,13,16]hexaazacyclooctadecin-19-yl (2-aminoethyl)carbamate]
IC50 (SSTR3 [1]): nanomolar range
affinity compared to octreotide (SSTR3 [1]; compared to octreotide): higher affinity
affinity compared to octreotide (SSTR1): higher affinity
IC50 (SSTR5 [2]): nanomolar range
affinity compared to octreotide (SSTR5 [2]; compared to octreotide): higher affinity
phosphorylation of SSTR2 (pS341/pS343, pT353/T354, pT356/T359) (SSTR2 [3]): selective phosphorylation of S341/S343
Mean of internalized fluorescence, SSTR3 (SSTR3-tGFP; 1 μM): 61.1 AU
rank as SSTR3-tGFP internalization inducer (SSTR3-tGFP; 1 μM): most potent inducer of receptor internalization
Mean of internalized fluorescence, SSTR3 (SSTR3-tGFP; 10 μM): 62.5 AU
EC50 (SSTR2 [4]): 0.312 ± 0.0293 µM
signs of discomfort ([5]; end of the treatment): no signs of discomfort
tumor volume (MRI) ([5]; female rats, 56 days, 12.5 mg/kg every 14 days): only a slight increase in tumor volume
number of Ki67-positive cells per 100.000 μm^2 ([5]; female rats): 134
change in Ki67-positive cells versus placebo ([5]; male rats): −33.5%
number of Ki67-positive cells per 100.000 μm^2 ([5]; male rats): 250
IGF1 levels (IGF1 levels): decreased IGF1 levels
IC50 (SSTR2 [6]): nanomolar range
affinity compared to octreotide (SSTR2 [6]; compared to octreotide): lower affinity
replacement of agonists (opioid receptors): fully replace agonists
internalization of SSTR5 (SSTR5 [7]): only a partial internalization
phosphorylation of SSTR5 (pT333) (SSTR5 [8]): partial phosphorylation
Mean of internalized fluorescence, SSTR2 (SSTR2-tGFP; 1 μM): 37.3 AU
Mean of internalized fluorescence, SSTR2 (SSTR2-tGFP; 10 μM): 35.9 AU
Mean of internalized fluorescence, SSTR5 (SSTR5-tGFP; 1 μM): 34.6 AU
Mean of internalized fluorescence, SSTR5 (SSTR5-tGFP; 10 μM): 42.0 AU
pentobarbital-induced GH release [9]: inhibited pentobarbital-induced GH release
EC50 (SSTR5 [10]): 0.0951 ± 0.0152 µM
internalization of SSTR3 (SSTR3 [11]): strong internalization

Reference: patent US20250057913A1, “USE OF SOMATOSTATIN AGONIST IN THE TREATMENT OF SSTR3 EXPRESSING TUMORS” (ITALFARMACO SPA, priority 2021, published 2025)
